# Reference: patent publication US12599136B2, “Substituted isophthalic acid diamides and their use as herbicides” (Bayer Aktiengesellschaft, priority 2020, dated 2026)
# Columns and labels:
# Assay type in all cases: in vivo
# Avena fatua [1] = assay: Post-emergence herbicidal action against AVEFA; conditions: for Post-emergence action against AVEFA in %: visual assessment about 3 weeks after treatment
# Summary of the method: (§1)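 Weeds in sandy loam soil received a post-emergence spray at the one-leaf stage. Compounds were applied as WP or EC in water, 600 to 800 l/ha, with 0.2% wetting agent. Activity in % was judged visually after roughly 3 weeks against untreated plants.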
# Lolium rigidum [2] = assay: Post-emergence herbicidal action against LOLRI
# Protocol: Seeds of monocotyledonous and dicotyledonous weed and crop plants are laid out in sandy loam soil in wood-fiber pots, covered with soil and cultivated in a greenhouse under good growth conditions. 2 to 3 weeks after sowing, the test plants are treated at the one-leaf stage. The compounds of the invention, formulated in the form of wettable powders (WP) or as emulsion concentrates (EC), are then sprayed onto the green parts of the plants in the form of an aqueous suspension or emulsion at a water application rate equivalent to 600 to 800 l/ha, with addition of 0.2% wetting agent. After the test plants have been left to stand in the greenhouse under optimal growth conditions for about 3 weeks, the action of the preparations is assessed visually in comparison to untreated controls (herbicidal action in percent (%): 100% activity=the plants have died, 0% activity=like control plants). […] The tables below illustrate, in an illustrative manner, the post-emergence herbicidal action of the compounds of the invention, the herbicidal activity being stated in percent.
# Abutilon theophrasti [3] = assay: Pre-emergence herbicidal action against ABUTH; conditions: for Pre-emergence action against ABUTH: visual score after 3 weeks vs untreated controls
# Summary of the method: (§2)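 Visual rating at 3 weeks vs untreated pots; 0–100% scale, 100% = plants died. Treatment: aqueous WP/EC spray onto covering soil, 600–800 l/ha, 0.2% wetter, seeds in sandy loam.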
# Stellaria media [4] = assay: Pre-emergence herbicidal action against STEME
# Summary of the method: as §2
# Amaranthus retroflexus [5] = assay: Pre-emergence herbicidal action against AMARE; conditions: for Pre-emergence action against AMARE: visual score after 3 weeks vs untreated controls; for Herbicidal action against AMARE: comparative experiment, pre-emergence
# Summary of the method: as §2
# Amaranthus retroflexus [6] = assay: Post-emergence herbicidal action against AMARE; conditions: visual assessment about 3 weeks after treatment
# Summary of the method: as §1
# Lolium rigidum [7] = assay: Pre-emergence herbicidal action against LOLRI
# Summary of the method: as §2
# Veronica persica [8] = assay: Post-emergence herbicidal action against VERPE; conditions: visual assessment about 3 weeks after treatment
# Summary of the method: as §1
# Viola tricolor [9] = assay: Pre-emergence herbicidal action against VIOTR; conditions: 320 g/ha
# Summary of the method: as §2
# Echinochloa crus-galli [10] = assay: Post-emergence herbicidal action against ECHCG; conditions: visual assessment about 3 weeks after treatment
# Summary of the method: as §1
# Cyperus esculentus [11] = assay: Pre-emergence herbicidal action against CYPES; conditions: for Pre-emergence action against CYPES: visual score after 3 weeks vs untreated controls; for Herbicidal action against CYPES: comparative experiment, pre-emergence
# Summary of the method: as §2
# Viola tricolor [12] = assay: Post-emergence herbicidal action against VIOTR
# Summary of the method: as §1
# Cyperus esculentus [13] = assay: Post-emergence herbicidal action against CYPES; conditions: visual assessment about 3 weeks after treatment
# Summary of the method: as §1
# Veronica persica [14] = assay: Pre-emergence herbicidal action against VERPE
# Summary of the method: as §2
# Abutilon theophrasti [15] = assay: Post-emergence herbicidal action against ABUTH
# Summary of the method: as §1
# Hordeum murinum [16] = assay: Pre-emergence herbicidal action against HORMU; conditions: visual score after 3 weeks vs untreated controls
# Summary of the method: as §2
# Matricaria inodora [17] = assay: Post-emergence herbicidal action against MATIN; conditions: for Post-emergence action against MATIN in %: visual assessment about 3 weeks after treatment
# Summary of the method: as §1
# Setaria viridis [18] = assay: Post-emergence herbicidal action against SETVI; conditions: for Post-emergence action against SETVI in %: visual assessment about 3 weeks after treatment
# Summary of the method: as §1
# Echinochloa crus-galli [19] = assay: Pre-emergence herbicidal action against ECHCG; conditions: for Pre-emergence action against ECHCG: visual score after 3 weeks vs untreated controls; for Herbicidal action against ECHCG: comparative experiment, pre-emergence
# Summary of the method: as §2
# Polygonum convolvulus [20] = assay: Pre-emergence herbicidal action against POLCO; conditions: 320 g/ha
# Summary of the method: as §2
# Pharbitis purpurea = assay: Post-emergence herbicidal action against PHBPU; conditions: 80 g/ha, visual assessment about 3 weeks after treatment
# Summary of the method: as §1
# Matricaria inodora [21] = assay: Pre-emergence herbicidal action against MATIN; conditions: for Pre-emergence action against MATIN: visual score after 3 weeks vs untreated controls
# Summary of the method: as §2
# Alopecurus myosuroides [22] = assay: Post-emergence herbicidal action against ALOMY
# Summary of the method: as §1
# Polygonum convolvulus [23] = assay: Post-emergence herbicidal action against POLCO; conditions: 80 g/ha, visual assessment about 3 weeks after treatment
# Summary of the method: as §1
# Hordeum murinum [24] = assay: Post-emergence herbicidal action against HORMU
# Summary of the method: as §1
# Avena fatua [25] = assay: Pre-emergence herbicidal action against AVEFA; conditions: for Pre-emergence action against AVEFA: visual score after 3 weeks vs untreated controls
# Summary of the method: as §2
# Setaria viridis [26] = assay: Pre-emergence herbicidal action against SETVI; conditions: for Herbicidal action against SETVI: comparative experiment
# Summary of the method: as §2
# Alopecurus myosuroides [27] = assay: Pre-emergence herbicidal action against ALOMY; conditions: for Pre-emergence action against ALOMY: visual score after 3 weeks vs untreated controls
# Summary of the method: as §2
# Stellaria media [28] = assay: Post-emergence herbicidal action against STEME; conditions: for Post-emergence action against STEME in %: visual assessment about 3 weeks after treatment
# Summary of the method: as §1
# [29] = comparative experiment, 5 g a.i./ha
# [30] = comparative experiment, pre-emergence, 80 g a.i./ha
# [31] = comparative experiment, pre-emergence, 20 g a.i./ha
smiles,measurement,setting,value
CN(C)C(=O)c1c(C(F)(F)F)ccc(C(=O)Nc2nnnn2C)c1Cl [Example 1-123],Post-emergence action against AVEFA in %,Avena fatua [1]; 5 g/ha,80%
same,Post-emergence action against AVEFA in %,Avena fatua [1]; 20 g/ha,90%
same,Post-emergence action against AVEFA in %,Avena fatua [1]; 80 g/ha,100%
same,Herbicidal action against AVEFA,Avena fatua [1]; [29],80
same,Post-emergence action against LOLRI in %,Lolium rigidum [2]; 20 g/ha,80%
same,Post-emergence action against LOLRI in %,Lolium rigidum [2]; 80 g/ha,90%
same,Pre-emergence action against ABUTH,Abutilon theophrasti [3]; 20 g/ha,80%
same,Pre-emergence action against ABUTH,Abutilon theophrasti [3]; 80 g/ha,100%
same,Pre-emergence action against ABUTH,Abutilon theophrasti [3]; Dosage column 320 g/ha (heading prints 3200 g/ha),100%
same,Herbicidal action against ABUTH,Abutilon theophrasti [3]; [30],100
same,Pre-emergence action against STEME,Stellaria media [4]; 20 g/ha,90%
same,Pre-emergence action against STEME,Stellaria media [4]; 80 g/ha,90%
same,Pre-emergence action against STEME,Stellaria media [4]; 320 g/ha,90%
same,Pre-emergence action against AMARE,Amaranthus retroflexus [5]; 20 g/ha,90%
same,Pre-emergence action against AMARE,Amaranthus retroflexus [5]; 80 g/ha,100%
same,Pre-emergence action against AMARE,Amaranthus retroflexus [5]; 320 g/ha,100%
same,Herbicidal action against AMARE,Amaranthus retroflexus [5]; 20 g a.i./ha,90
same,Herbicidal action against AMARE,Amaranthus retroflexus [5]; 80 g a.i./ha,100
same,Post-emergence action against AMARE in %,Amaranthus retroflexus [6]; 5 g/ha,100%
same,Post-emergence action against AMARE in %,Amaranthus retroflexus [6]; 20 g/ha,100%
same,Post-emergence action against AMARE in %,Amaranthus retroflexus [6]; 80 g/ha,100%
same,Pre-emergence action against LOLRI,Lolium rigidum [7]; 80 g/ha,80%
same,Pre-emergence action against LOLRI,Lolium rigidum [7]; 320 g/ha,100%
same,Post-emergence action against VERPE in %,Veronica persica [8]; 5 g/ha,80%
same,Post-emergence action against VERPE in %,Veronica persica [8]; 20 g/ha,80%
same,Post-emergence action against VERPE in %,Veronica persica [8]; 80 g/ha,100%
same,Pre-emergence action against VIOTR,Viola tricolor [9],90%
same,Post-emergence action against ECHCG in %,Echinochloa crus-galli [10]; 5 g/ha,100%
same,Post-emergence action against ECHCG in %,Echinochloa crus-galli [10]; 20 g/ha,100%
same,Post-emergence action against ECHCG in %,Echinochloa crus-galli [10]; 80 g/ha,100%
same,Pre-emergence action against CYPES,Cyperus esculentus [11]; 20 g/ha,80%
same,Pre-emergence action against CYPES,Cyperus esculentus [11]; 80 g/ha,100%
same,Pre-emergence action against CYPES,Cyperus esculentus [11]; 320 g/ha,100%
same,Herbicidal action against CYPES,Cyperus esculentus [11]; 20 g a.i./ha,80
same,Herbicidal action against CYPES,Cyperus esculentus [11]; 80 g a.i./ha,100
same,Post-emergence action against VIOTR in %,Viola tricolor [12]; 5 g/ha,80%
same,Post-emergence action against VIOTR in %,Viola tricolor [12]; 20 g/ha,100%
same,Post-emergence action against VIOTR in %,Viola tricolor [12]; 80 g/ha,100%
same,Post-emergence action against CYPES in %,Cyperus esculentus [13]; 5 g/ha,80%
same,Post-emergence action against CYPES in %,Cyperus esculentus [13]; 20 g/ha,90%
same,Post-emergence action against CYPES in %,Cyperus esculentus [13]; 80 g/ha,90%
same,Pre-emergence action against VERPE,Veronica persica [14]; 80 g/ha,80%
same,Pre-emergence action against VERPE,Veronica persica [14]; 320 g/ha,90%
same,Post-emergence action against ABUTH,Abutilon theophrasti [15]; 5 g/ha,100%
same,Post-emergence action against ABUTH,Abutilon theophrasti [15]; 20 g/ha,100%
same,Post-emergence action against ABUTH,Abutilon theophrasti [15]; 80 g/ha,100%
same,Herbicidal action against ABUTH,Abutilon theophrasti [15]; [29],100
same,Pre-emergence action against HORMU,Hordeum murinum [16]; 80 g/ha,90%
same,Pre-emergence action against HORMU,Hordeum murinum [16]; 320 g/ha,100%
same,Post-emergence action against MATIN in %,Matricaria inodora [17]; 5 g/ha,80%
same,Post-emergence action against MATIN in %,Matricaria inodora [17]; 20 g/ha,80%
same,Post-emergence action against MATIN in %,Matricaria inodora [17]; 80 g/ha,100%
same,Herbicidal action against MATIN,Matricaria inodora [17]; [29],80
same,Post-emergence action against SETVI in %,Setaria viridis [18]; 5 g/ha,100%
same,Post-emergence action against SETVI in %,Setaria viridis [18]; 20 g/ha,100%
same,Post-emergence action against SETVI in %,Setaria viridis [18]; 80 g/ha,100%
same,Herbicidal action against SETVI,Setaria viridis [18]; [29],100
same,Pre-emergence action against ECHCG,Echinochloa crus-galli [19]; 20 g/ha,90%
same,Pre-emergence action against ECHCG,Echinochloa crus-galli [19]; 80 g/ha,100%
same,Pre-emergence action against ECHCG,Echinochloa crus-galli [19]; 320 g/ha,100%
same,Herbicidal action against ECHCG,Echinochloa crus-galli [19]; 20 g a.i./ha,90
same,Herbicidal action against ECHCG,Echinochloa crus-galli [19]; 80 g a.i./ha,100
same,Pre-emergence action against POLCO,Polygonum convolvulus [20],90%
same,Post-emergence action against PHBPU in %,Pharbitis purpurea,100%
same,Pre-emergence action against MATIN,Matricaria inodora [21]; 80 g/ha,90%
same,Pre-emergence action against MATIN,Matricaria inodora [21]; 320 g/ha,90%
same,Herbicidal action against MATIN,Matricaria inodora [21]; [31],70
same,Post-emergence action against ALOMY,Alopecurus myosuroides [22]; 5 g/ha,100%
same,Post-emergence action against ALOMY,Alopecurus myosuroides [22]; 20 g/ha,100%
same,Post-emergence action against ALOMY,Alopecurus myosuroides [22]; 80 g/ha,100%
same,Herbicidal action against ALOMY,Alopecurus myosuroides [22]; [29],100
same,Post-emergence action against POLCO in %,Polygonum convolvulus [23],90%
same,Post-emergence action against HORMU in %,Hordeum murinum [24]; 5 g/ha,80%
same,Post-emergence action against HORMU in %,Hordeum murinum [24]; 20 g/ha,80%
same,Post-emergence action against HORMU in %,Hordeum murinum [24]; 80 g/ha,100%
same,Pre-emergence action against AVEFA,Avena fatua [25]; 80 g/ha,90%
same,Pre-emergence action against AVEFA,Avena fatua [25]; 320 g/ha,100%
same,Herbicidal action against AVEFA,Avena fatua [25]; [30],90
same,Pre-emergence action against SETVI,Setaria viridis [26]; 20 g/ha,90%
same,Pre-emergence action against SETVI,Setaria viridis [26]; 80 g/ha,100%
same,Pre-emergence action against SETVI,Setaria viridis [26]; 320 g/ha,100%
same,Herbicidal action against SETVI,Setaria viridis [26]; 20 g a.i./ha,90
same,Herbicidal action against SETVI,Setaria viridis [26]; 80 g a.i./ha,100
same,Pre-emergence action against ALOMY,Alopecurus myosuroides [27]; 80 g/ha,80%
same,Pre-emergence action against ALOMY,Alopecurus myosuroides [27]; 320 g/ha,100%
same,Herbicidal action against ALOMY,Alopecurus myosuroides [27]; [31],70
same,Post-emergence action against STEME in %,Stellaria media [28]; 5 g/ha,100%
same,Post-emergence action against STEME in %,Stellaria media [28]; 20 g/ha,100%
same,Post-emergence action against STEME in %,Stellaria media [28]; 80 g/ha,100%
same,Herbicidal action against STEME,Stellaria media [28]; [29],100
